The values that follow come from paper PMC4542541, “Flexibility and extracellular opening determine the interaction between ligands and insect sulfakinin receptors” (Scientific Reports, 2015).

The subject of test [1] is TcSKR2. In words: Receptor activation bioassay, CRE-luciferase reporter in Sf9-TcSKR2 cells. Set-up: key to peptide marked active on TcSKR2: *: A peptide is active on the sulfakinin receptor (SKR). Conditions: for peptide marked active on TcSKR2: 10 μM, one-way ANOVA with Dunnett's posttest vs nsSK and medium control; for activity on TcSKR2 in words: compared to parental peptide nsSK, Sf9 cell-based reporter; for relative activity (% nsSK) TcSKR2: peptide 10 μM, Sf9-TcSKR2 cells transiently transfected with pGL4.29[luc2P/CRE/Hygro], 5 h at 27 °C, Bright-Glo luminescence, activity related to nsSK, mean ± SEM, at least two biological replicates, SEM. The format is cell-based, Tribolium castaneum. As for the experimental part: (§1) Sf9 cells (Spodoptera frugiperda) and Sf9-TcSKR1 and Sf9-TcSKR2 cells generated previously[21] were routinely cultured in SF-900™ II SFM medium (Life Technologies, Merelbeke, Belgium) at 27 °C in darkness. The medium for Sf9-TcSKR1 and Sf9-TcSKR2 was supplemented with 20 μg/ml of puromycin (Life Technologies, Merelbeke, Belgium) to maintain the stable expression of TcSKRs.
(§2) The reporter vector pGL4.29[luc2P/CRE/Hygro] (CRE; Promega, Leiden, the Netherlands) was applied here and it has a cAMP (cyclic adenosine 3′, 5′-cyclic monophosphate) response element upstream the reporter gene luciferase, through which the cAMP signaling regulates the transcription of luciferase proportionally. Thus, the readout of the luminescence corresponds to the extent to which the expressed TcSKR is activated in Sf9 cells. The SK-related peptides (Table 1) were tested at concentrations of 0.1, 1 and 10 μM.
(§3) Sf9, Sf9-TcSKR1 and Sf9-TcSKR2 cells were all transiently transfected with pGL4.29[luc2P/CRE/Hygro] using ESCORT™ IV transfection reagent (Sigma-Aldrich, Bornem, Belgium) following the manufacturer’s instruction. Medium was supplemented with 200 μg/ml hygromycin (Life Technologies, Merelbeke, Belgium) 24 h post-transfection. The transient cells (Sf9-CRE, Sf9-TcSKR1-CRE, Sf9-TcSKR2-CRE) were seeded at 20,000 cells per well in white 96-well plates (Greiner Bio-One, Frickenhausen, Germany). After 12 h, cells had attached to the well bottom and the medium was replaced by fresh medium containing peptide of designated concentrations. Each concentration was tested in three replicates and the entire assay was repeated at least twice. Two kinds of negative control were included. […] Second, Sf9-CRE cells were used as a negative control to eliminate the potential internal factors that were activated by peptide samples. Cells were incubated with a peptide for 5 h at 27 °C and then Bright-Glo™ luciferase assay (Promega, Leiden, the Netherlands) was carried out according to the manufacturer’s instruction. Light emission, resulting from the luciferase activity was measured for 10 seconds per well using an Infinite® 200 PRO microplate reader (Tecan, Mechelen, Belgium).
(§4) In the receptor activation bioassay, the activity of a peptide on TcSKR was represented by the increased luminescence units, calculated with the following formula: activitypeptide = (luminescencepeptide – luminescencemedium)/luminescencemedium × 100. The activity of SK-related peptide was compared to that of nsSK and medium control by one-way analysis of variance with the Dunnett’s posttest in GraphPad Prism version 5.00 (GraphPad Software, La Jolla, CA). The activity of a SK-related peptide was also related to the activity of nsSK as a percentage value, calculated with the formula: relative activity of peptide (% nsSK) = activitypeptide/activitynsSK × 100.
(A reporter such as luciferase makes a cellular process visible.)

A further test has as its system TcSKR1. The test is described as follows: Receptor activation bioassay, CRE-luciferase reporter in Sf9-TcSKR1 cells. Conditions: for peptide marked active on TcSKR1: 10 μM, one-way ANOVA with Dunnett's posttest vs nsSK and medium control; for activity on TcSKR1 in words: compared to parental peptide nsSK, Sf9 cell-based reporter; for relative activity (% nsSK) TcSKR1: peptide 10 μM, Sf9-TcSKR1 cells transiently transfected with pGL4.29[luc2P/CRE/Hygro], 5 h at 27 °C, Bright-Glo luminescence, activity related to nsSK, mean ± SEM, at least two biological replicates, SEM. The format is cell-based, Tribolium castaneum. Further details: key to peptide marked active on TcSKR1: *: A peptide is active on the sulfakinin receptor (SKR). As for the experimental part: as §1, §2, §3, §4

For test [2], the system named is TcSKR2. Conditions: previous experiments; cited from earlier work. The source says: As a satiety factor, insect SK signaling provides insights into the development of new pest control strategies. […] This lead to a hypothesis that sSK and nsSK interact with the two TcSKRs differently. Therefore, understanding the interaction of ligand and receptor will promote the ...

Entries after “also recorded” stand apart in the source; their conditions may differ.

As for “DDY(SO3H)GHMRF-NH2 [Peptide 1658, sulfated SK-related peptide DDY(SO3H)GHMRF-NH2]”, in the test with TcSKR2 [1], the “peptide marked active on TcSKR2” value is on record as “*”, the “activity on TcSKR2 in words” value is on record as “much more active than nsSK; also recorded: retention of activity” and the “relative activity (% nsSK) TcSKR2” value is reported as 516.8 ± 50.6 % nsSK. Moreover, in the test on TcSKR1, the “peptide marked active on TcSKR1” value is listed as “*”, the “activity on TcSKR1 in words” value was “retention of activity” and the “relative activity (% nsSK) TcSKR1” value was 64.8 ± 8.4 % nsSK.
Regarding “DDYGHMRF-NH2 [Peptide 2009, truncated nsSK, DDYGHMRF-NH2]”, the “relative activity (% nsSK) TcSKR2” value in the test on TcSKR2 [1] amounted to 1.2 ± 13.7 % nsSK. The “relative activity (% nsSK) TcSKR1” value in the test on TcSKR1 amounted to 7.8 ± 11.8 % nsSK.
The corresponding values for “DYGHMRF-NH2 [Peptide 2010, truncated nsSK, DYGHMRF-NH2]” are 8.6 ± 9.1 % nsSK and 28.1 ± 15.6 % nsSK.
As for “EADY(SO3H)GHNleRF-NH2 [Peptide 1591-1, sulfated SK-related peptide EADY(SO3H)GHNleRF-NH2]”, in the test with TcSKR2 [1], the “peptide marked active on TcSKR2” value was “*”, the “activity on TcSKR2 in words” value was “much more active than nsSK; also recorded: retention of activity” and the “relative activity (% nsSK) TcSKR2” value is listed as 113.7 ± 60.5 % nsSK. In the test with TcSKR1, the “peptide marked active on TcSKR1” value is given as “*”, the “activity on TcSKR1 in words” value was “retention of activity” and the “relative activity (% nsSK) TcSKR1” value came to 82.6 ± 2.0 % nsSK.
In the case of “FDDAGHMRF-NH2 [Peptide 2008, alanine-substituted nsSK, …-NH2]”, in the test on TcSKR2 [1], the “activity on TcSKR2 in words” value is “inactive” and the “relative activity (% nsSK) TcSKR2” value was found to be 21.5 ± 10.7 % nsSK. In addition, in the test with TcSKR1, the “activity on TcSKR1 in words” value was “inactive” and the “relative activity (% nsSK) TcSKR1” value is given as 5.3 ± 1.5 % nsSK.
In the case of “FDDY(SO3H)GHMRF-NH2 [sSK, sulfated sulfakinin peptide FDDY(SO3H)GHMRF-NH2]”, in the test on TcSKR2 [2], the “potency of sSK relative to nsSK to activate TcSKR2” value is 1,000–10,000 times.
As to “FDDYAHMRF-NH2 [Peptide 2007, alanine-substituted nsSK, …-NH2]”, the “relative activity (% nsSK) TcSKR2” value with TcSKR2 [1] turned out to be 8.5 ± 5.3 % nsSK. In addition, in the test on TcSKR1, the “activity on TcSKR1 in words” value is “kept the activity on TcSKR1 to some extent” and the “relative activity (% nsSK) TcSKR1” value was found to be 55.0 ± 7.1 % nsSK.
“FDDYGAMRF-NH2 [Peptide 2006, alanine-substituted nsSK, …-NH2]”: in the test on TcSKR2 [1], the “activity on TcSKR2 in words” value was “inactive” and the “relative activity (% nsSK) TcSKR2” value stood at 4.0 ± 9.9 % nsSK. Further, in the test on TcSKR1, the “activity on TcSKR1 in words” value is “inactive” and the “relative activity (% nsSK) TcSKR1” value is 0.5 ± 0.7 % nsSK.
“FDDYGHARF-NH2 [Peptide 2005, alanine-substituted nsSK, …-NH2]”: in the test with TcSKR2 [1], the “activity on TcSKR2 in words” value was “inactive” and the “relative activity (% nsSK) TcSKR2” value came out at 11.9 ± 2.7 % nsSK. In the test on TcSKR1, the “activity on TcSKR1 in words” value was “inactive” and the “relative activity (% nsSK) TcSKR1” value is −0.8 ± 4.4 % nsSK.
As to “FDDYGHMAF-NH2 [Peptide 2004, alanine-substituted nsSK, …-NH2]”, in the test with TcSKR2 [1], the “activity on TcSKR2 in words” value was “inactive” and the “relative activity (% nsSK) TcSKR2” value came out at 18.7 ± 10.2 % nsSK. In addition, in the test on TcSKR1, the “activity on TcSKR1 in words” value is “inactive” and the “relative activity (% nsSK) TcSKR1” value came out at 58.0 ± 22.0 % nsSK.
In the case of “FDDYGHMRA-NH2 [Peptide 2003, alanine-substituted nsSK, …-NH2]”, in the test with TcSKR2 [1], the “activity on TcSKR2 in words” value is “inactive” and the “relative activity (% nsSK) TcSKR2” value was −3.5 ± 5.9 % nsSK. In the test on TcSKR1, the “activity on TcSKR1 in words” value was “inactive” and the “relative activity (% nsSK) TcSKR1” value is −2.0 ± 3.4 % nsSK.
Consider “FDDYGHMRF-NH2 [nsSK, nonsulfated sulfakinin peptide …-NH2, parental peptide of the series, reference compound]”, for which, in the test with TcSKR2 [1], the “peptide marked active on TcSKR2” value is “*” and the “relative activity (% nsSK) TcSKR2” value stood at 100.0 ± 0.0 % nsSK. Moreover, in the test on TcSKR1, the “peptide marked active on TcSKR1” value is “*” and the “relative activity (% nsSK) TcSKR1” value was 100.0 ± 0.0 % nsSK.
On to “GHMRF-NH2 [Peptide 2053, truncated nsSK, GHMRF-NH2]”, for which the “relative activity (% nsSK) TcSKR2” value with TcSKR2 [1] is recorded as −4.8 ± 0.1 % nsSK. Also, in the test on TcSKR1, the “relative activity (% nsSK) TcSKR1” value stood at 0.6 ± 0.1 % nsSK.
The corresponding values for “HMRF-NH2 [Peptide 2052, truncated nsSK, HMRF-NH2]” are 1.8 ± 0.1 % nsSK and 6.8 ± 0.2 % nsSK.
Consider “SDDY(SO3H)GHMRF-NH2 [Peptide 1835, sulfated SK-related peptide SDDY(SO3H)GHMRF-NH2]”, for which, in the test on TcSKR2 [1], the “peptide marked active on TcSKR2” value is recorded as “*”, the “activity on TcSKR2 in words” value is on record as “much more active than nsSK; also recorded: retention of activity” and the “relative activity (% nsSK) TcSKR2” value was 645.7 ± 126.6 % nsSK. For the same substance, in the test with TcSKR1, the “peptide marked active on TcSKR1” value is reported as “*”, the “activity on TcSKR1 in words” value is recorded as “retention of activity” and the “relative activity (% nsSK) TcSKR1” value was found to be 76.5 ± 7.6 % nsSK.
For “YGHMRF-NH2 [Peptide 2011, truncated nsSK, YGHMRF-NH2]”, the “relative activity (% nsSK) TcSKR2” value with TcSKR2 [1] was determined as 11.7 ± 13.5 % nsSK. For the same substance, the “relative activity (% nsSK) TcSKR1” value in the test with TcSKR1 is given as 2.8 ± 2.5 % nsSK.
